Experimental data from PubChem BioAssay AID1918939 (Molecular Pharmacology Branch, DTP, NCI, 2023).

Tested on: 653999-131-R-J2-PDC complex spheroid viability
Experiment: Anticancer human tumor 653999-131-R-J2-PDC patient-derived lung adenocarcinoma cell line growth inhibition
Details: for IC50: curve of first compound; for viability, T/C: stronger effect = lower value; active = viability on the fitted dose curve at most 10% of control; inactive = the rest
How it was run: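 Drug combinations with the LSD1 inhibitor iadademstat tested on tumor cells co-cultured as spheroids with endothelial cells and mesenchymal stem cells. Concentrations descended in half-log increments from clinical Cmax or 10 microM.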

[1] = second compound 0.1 µM, first compound 0.0316 µM
[2] = second compound 0.1 µM, first compound 0.1 µM
[3] = second compound 0.1 µM, first compound 0.316 µM
[4] = second compound 0.1 µM, first compound 1 µM
[5] = second compound 0.316 µM, first compound 0.0316 µM
[6] = second compound 0.316 µM, first compound 0.1 µM
[7] = second compound 0.316 µM, first compound 0.316 µM
[8] = second compound 0.316 µM, first compound 1 µM
[9] = second compound 1 µM, first compound 0.0316 µM
[10] = second compound 1 µM, first compound 0.1 µM
[11] = second compound 1 µM, first compound 0.316 µM
[12] = second compound 1 µM, first compound 1 µM
[13] = second compound 3.16 µM, first compound 0.0316 µM
[14] = second compound 3.16 µM, first compound 0.1 µM
[15] = second compound 3.16 µM, first compound 0.316 µM
[16] = second compound 3.16 µM, first compound 1 µM
[17] = second compound 10 µM, first compound 0.0316 µM
[18] = second compound 10 µM, first compound 0.1 µM
[19] = second compound 10 µM, first compound 0.316 µM
[20] = second compound 10 µM, first compound 1 µM
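Also: spheroids exposed to agents for seven days before readout.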

COc1ccc([C@@H](O)c2cc(-c3ncnc4cc(N5CCOCC5)ccc34)c(F)cc2Cl)nn1 + NC1CCC(NC2CC2c2ccccc2)CC1
1750 nM: IC50 (second compound 0.316 µM)
1720 nM: IC50 (second compound 10 µM)
2250 nM: IC50 (second compound 3.16 µM)
2560 nM: IC50 (second compound 1 µM)
1830 nM: IC50 (second compound 0.1 µM)
inactive: viability, T/C [1] 97.4% | viability, T/C [2] 94.9% | viability, T/C [3] 68.8% | viability, T/C [4] 61.5% | viability, T/C (second compound 0.1 µM, first compound 3.16 µM) 42% | viability, T/C (second compound 0.1 µM, first compound 10 µM) 30.9% | viability, T/C [5] 106% | viability, T/C [6] 85.3% | viability, T/C [7] 74.7% | viability, T/C [8] 60.8% | viability, T/C (second compound 0.316 µM, first compound 3.16 µM) 39% | viability, T/C (second compound 0.316 µM, first compound 10 µM) 28.1% | viability, T/C [9] 96.5% | viability, T/C [10] 98% | viability, T/C [11] 76.6% | viability, T/C [12] 68.5% | viability, T/C (second compound 1 µM, first compound 3.16 µM) 45.7% | viability, T/C (second compound 1 µM, first compound 10 µM) 29.4% | viability, T/C [13] 84.2% | viability, T/C [14] 114% | viability, T/C [15] 78.1% | viability, T/C [16] 65.2% | viability, T/C (second compound 3.16 µM, first compound 3.16 µM) 46.4% | viability, T/C (second compound 3.16 µM, first compound 10 µM) 31.5% | viability, T/C [17] 108% | viability, T/C [18] 98% | viability, T/C [19] 72% | viability, T/C [20] 57% | viability, T/C (second compound 10 µM, first compound 3.16 µM) 44.6% | viability, T/C (second compound 10 µM, first compound 10 µM) 29.4%

Nc1ncn(C2CC(O)C(CO)S2)c(=O)n1 (stereo not given) + NC1CCC(NC2CC2c2ccccc2)CC1
inactive: viability, T/C (second compound 0.1 µM, first compound 0.000949 µM) 83.8% | viability, T/C (second compound 0.1 µM, first compound 0.003 µM) 109% | viability, T/C (second compound 0.1 µM, first compound 0.00949 µM) 90.8% | viability, T/C (second compound 0.1 µM, first compound 0.03 µM) 74.8% | viability, T/C (second compound 0.1 µM, first compound 0.0949 µM) 70.4% | viability, T/C (second compound 0.1 µM, first compound 0.3 µM) 50.6% | viability, T/C (second compound 0.316 µM, first compound 0.000949 µM) 86.6% | viability, T/C (second compound 0.316 µM, first compound 0.003 µM) 81.6% | viability, T/C (second compound 0.316 µM, first compound 0.00949 µM) 87.5% | viability, T/C (second compound 0.316 µM, first compound 0.03 µM) 74.5% | viability, T/C (second compound 0.316 µM, first compound 0.0949 µM) 58% | viability, T/C (second compound 0.316 µM, first compound 0.3 µM) 51.9% | viability, T/C (second compound 1 µM, first compound 0.000949 µM) 89.5% | viability, T/C (second compound 1 µM, first compound 0.003 µM) 94% | viability, T/C (second compound 1 µM, first compound 0.00949 µM) 86.3% | viability, T/C (second compound 1 µM, first compound 0.03 µM) 78.7% | viability, T/C (second compound 1 µM, first compound 0.0949 µM) 67.8% | viability, T/C (second compound 1 µM, first compound 0.3 µM) 55.5% | viability, T/C (second compound 3.16 µM, first compound 0.000949 µM) 99% | viability, T/C (second compound 3.16 µM, first compound 0.003 µM) 92% | viability, T/C (second compound 3.16 µM, first compound 0.00949 µM) 85.8% | viability, T/C (second compound 3.16 µM, first compound 0.03 µM) 81.3% | viability, T/C (second compound 3.16 µM, first compound 0.0949 µM) 68.2% | viability, T/C (second compound 3.16 µM, first compound 0.3 µM) 54.7% | viability, T/C (second compound 10 µM, first compound 0.000949 µM) 88.9% | viability, T/C (second compound 10 µM, first compound 0.003 µM) 112% | viability, T/C (second compound 10 µM, first compound 0.00949 µM) 88.8% | viability, T/C (second compound 10 µM, first compound 0.03 µM) 84.7% | viability, T/C (second compound 10 µM, first compound 0.0949 µM) 63.7% | viability, T/C (second compound 10 µM, first compound 0.3 µM) 58.6%
> 300 nM: IC50 (second compound 0.1 µM) | IC50 (second compound 0.316 µM) | IC50 (second compound 1 µM) | IC50 (second compound 3.16 µM) | IC50 (second compound 10 µM)

O=C(C=Cn1cnc(-c2cc(C(F)(F)F)cc(C(F)(F)F)c2)n1)NNc1cnccn1 + NC1CCC(NC2CC2c2ccccc2)CC1
8.22 nM: IC50 (second compound 0.316 µM)
11.1 nM: IC50 (second compound 3.16 µM)
inactive: viability, T/C (second compound 0.1 µM, first compound 0.00316 µM) 53.1% | viability, T/C (second compound 0.1 µM, first compound 0.01 µM) 46.5% | viability, T/C [1] 35.8% | viability, T/C [2] 30.6% | viability, T/C [3] 31.8% | viability, T/C [4] 19.6% | viability, T/C (second compound 0.316 µM, first compound 0.00316 µM) 57.2% | viability, T/C (second compound 0.316 µM, first compound 0.01 µM) 48.7% | viability, T/C [5] 40.9% | viability, T/C [6] 34.6% | viability, T/C [7] 29.4% | viability, T/C [8] 26.2% | viability, T/C (second compound 1 µM, first compound 0.00316 µM) 53.6% | viability, T/C (second compound 1 µM, first compound 0.01 µM) 50.1% | viability, T/C [9] 48% | viability, T/C [10] 34.6% | viability, T/C [11] 30.6% | viability, T/C [12] 22.4% | viability, T/C (second compound 3.16 µM, first compound 0.00316 µM) 64% | viability, T/C (second compound 3.16 µM, first compound 0.01 µM) 46.3% | viability, T/C [13] 42.7% | viability, T/C [14] 35.4% | viability, T/C [15] 29.1% | viability, T/C [16] 21.9% | viability, T/C (second compound 10 µM, first compound 0.00316 µM) 60.4% | viability, T/C (second compound 10 µM, first compound 0.01 µM) 45.5% | viability, T/C [17] 41% | viability, T/C [18] 40.6% | viability, T/C [19] 32.5% | viability, T/C [20] 24.2%
12.7 nM: IC50 (second compound 1 µM)
9.83 nM: IC50 (second compound 10 µM)
4.91 nM: IC50 (second compound 0.1 µM)
